The text below walks through data of patent US12324841B2, “Methods of treating cancer with a combination of an anti-PD-1 antibody and an anti-tissue factor antibody-drug conjugate” (GENMAB A/S, priority 2018, dated 2025).

“Also recorded” adds a separate entry of the source.

For test [1], the system named is CD14+ monocyte/macrophages. Kind of test: Monocyte/macrophage activation in PBMCs fed killed MDA-MB-231 cells. Format: cell-based, human. The source says:
FIGS. 7A and 7B is a series of graphs in which Tissue Factor positive MDA-MB-231 cells killed with various agents were fed to human peripheral blood mononuclear cells (PBMCs) and immune activation assessed by increased expression of activations markers on innate CD14+ monocyte/macrophages and induction of chemokine and cytokine production.
Immunogenic cell death, as mediated by MMAE, is regulated cell death that activates adaptive immune responses against antigens from dead and dying tumor cells, and allows for the generation of robust innate immune cell activation and subsequent cytotoxic T cell responses targeted towards specific tumor cell antigens. […] Furthermore, these monocyte/macrophages conditioned by ICD-killed cells promote activation of T cells, as evidenced by production of signature inflammatory cytokines associated with cytotoxic T cell responses.

Test [2] has as its system Tissue Factor positive cell lines. Kind of test: Cell death and release of ATP and HMGB1 from Tissue Factor positive cell lines. Format: cell-based. The text has this:
Auristatin ADC payloads disrupt the microtubule networks resulting in altered ER localization and function, which ultimately results in ER stress.

For the next test, the system named is T cells. In words: T cell activation in CSFE labeled PBMCs fed killed MDA-MB-231 cells, with or without pembrolizumab. Format: cell-based, human. The settings on record: 48 hours, without pembrolizumab. As for the experimental part:
FIG. 8A-8C is a series of graphs in which Tissue Factor positive MDA-MB-231 cells killed with various agents were fed to CSFE labeled human peripheral blood mononuclear cells (PBMCs) in the presence or absence of the PD1 targeting antibody pembrolizumab for 48 hours and T cells activation assessed by A) decreased CSFE fluorescent indicative of T cell proliferation and B) and C) cytokine production.
Induction of the innate immune response following exposure to cancer cells undergoing ICD sets up secondary T cell activation, which can be enhanced by concomitant pembrolizumab treatment.

The test system of test [3] is HPAFII (pancreatic carcinoma). Kind of test: Western blot analysis of ER stress induction in HPAFII cells. Format: cell-based. The settings on record: 18 hours (legend: 16 hours). Here is the method: Induction of cell death and release of ICD danger signals occurs concomitant with initiation of an ER stress response. Two Tissue Factor positive cell lines, HPAFII (pancreatic carcinoma) and MDA-MB-231 (breast cell carcinoma) were exposed to tisotumab vedotin ADC, an Isotype-MMAE ADC (H00-MMAE, IgG1 MMAE), or free MMAE for 18 hours and induction of ER stress monitored by western blot analysis. Phosphorylation of inositol-requiring transmembrane kinase/endonuclease 1 (IRE1) was detected after treatment with tisotumab vedotin ADC or MMAE free drug (FIG. 6). […] The ability for auristatins to prime the immune system to recognize tumor antigens opens the door for a myriad of combinatorial therapeutic options.

For test [4], the system named is murine tumor cells that stably express human TF. Kind of test: Syngeneic tumor model: immunization with drug-killed human TF positive murine tumor cells, then tumor challenge. Format: in vivo, Balb/c mice. The settings on record: mice immunized with tumor cells killed by 1-5 μg per ml tisotumab vedotin or 100 nM MMAE. Here is the method:
Mouse tumor cells are transfected with plasmid constructs encoding human tissue factor (TF) and sgRNA-guided Cas9 nuclease (sgRNA/Cas9) to generate a murine cell line that expresses the human TF. Fluorescence activated cell sorting (FACS) yields a clonal population of murine tumor cells that stably express human TF, these cells are then treated with 1 μg to 5 μg per ml of tisotumab vedotin or 100 nM of MMAE for 4 days. In order to prepare dying cells for immunization, treated murine tumor cells are overlaid atop Histopaque, and centrifuged at 2000 g for 30 minutes. Dead and dying cells are pelleted underneath the Histopaque layer, and viability assessed by trypan blue exclusion. A sample with approximately <20% live cells as measured by trypan blue exclusion is obtained. Flash-frozen tumor cells are prepared by submerging the cells in liquid nitrogen for 10 seconds, followed by immersion in 37° C. water until completely thawed. The liquid nitrogen freeze-thaw process is repeated 5 times. Dead and dying human TF positive tumor cells are resuspended in phosphate buffered saline (PBS) and 2×10^6 cells are injected into the peritoneum of immune-competent Balb/c mice. Seven days later, mice receive a second immunization with dead and dying cells prepared in the same manner.
Fourteen days after initial immunization with the dead and dying human TF positive tumor cells, mice are subcutaneously implanted with 5×10^6 wild-type tumor cells and monitored for tumor growth. […] As these effects occur in the absence of any administered therapeutic agent, the administration of cells killed by tisotumab vedotin or MMAE is sufficient to generate long-lasting protective immune memory against subsequent tumor cell challenge. Protective immune memory is amplified by treating these mice with tisotumab vedotin in combination with an antibody that binds to murine PD-1.

The mark [5] stands for this setting: compared to IgG1-MMAE ADC or tisotumab alone.

Regarding “tisotumab vedotin: antibody-drug conjugate comprising an antibody that binds to tissue factor (TF), a protease-cleavable linker, and the microtubule disrupting agent MMAE”, the “chemotactic and inflammatory mediators from monocyte/macrophages after uptake of dead cells” value in test [1] is “elicit strong chemotactic and inflammatory mediators”. For the same substance, in test [1] (setting [5]), the “monocyte/macrophage activation, CD86 expression by flow cytometry” value was “drove monocyte/macrophage activations” and the “release of innate chemokines including MIP 1β” value is on record as “induced release of innate chemokines including MIP 1β”. In addition, the cell death entry in test [2] is given as “undergo cell death”. For the same substance, in test [2] (FIG. 5A), the ATP release/secretion result was “drove robust A) ATP secretion; also recorded: release the ICD related molecules ATP”. The “activity on multiple Tissue Factor positive cell lines” value in test [2] (FIG. 5B) is recorded as “active on multiple Tissue Factor positive cell lines”. In addition, in test [2] (FIG. 5C), the HMGB1 release/secretion entry was “drove robust A) ATP secretion and C) HMGB1 release; also recorded: release the ICD related molecules ATP (FIG. 5A) and HMGβ1”. In the test on T cells, the “T cell proliferation (CSFE dilution)” value was “drove T cell proliferation”; the “production of IFNγ” value is “production of T cell specific cytokines such as IL12P70 and IFNγ”; the “production of IL12p70” value was “production of T cell specific cytokines such as IL12P70 and IFNγ”. In test [3], the “ATF4 cleavage (PERK pathway)” value is on record as “upregulation of ATF4 cleavage”, the “phosphorylation of IRE1” value is reported as “detected” and the “phosphorylation of JNK” value was “increased phosphorylation”. In test [4], the “survival after challenge with wild-type tumor cells” value is on record as “increased survival” and the “tumor growth after challenge with wild-type tumor cells” value is listed as “delayed tumor growth”.
